# Results as given in patent publication US11040981B2, “Pyrrolotriazine compounds and methods of inhibiting TAM kinases” (Syros Pharmaceuticals, Inc., priority 2017, dated 2021).
# Tests used:
# MERTK = target: T1, MERTK (Homo sapiens, UniProt Q12866); assay: TR-FRET kinase activity assay, MERTK; format: biochemical; details: for IC50: TR-FRET activity assay, ATP at Km, 60 minutes, read-out: Mer IC50
# T1 sequence (Q12866 21-999): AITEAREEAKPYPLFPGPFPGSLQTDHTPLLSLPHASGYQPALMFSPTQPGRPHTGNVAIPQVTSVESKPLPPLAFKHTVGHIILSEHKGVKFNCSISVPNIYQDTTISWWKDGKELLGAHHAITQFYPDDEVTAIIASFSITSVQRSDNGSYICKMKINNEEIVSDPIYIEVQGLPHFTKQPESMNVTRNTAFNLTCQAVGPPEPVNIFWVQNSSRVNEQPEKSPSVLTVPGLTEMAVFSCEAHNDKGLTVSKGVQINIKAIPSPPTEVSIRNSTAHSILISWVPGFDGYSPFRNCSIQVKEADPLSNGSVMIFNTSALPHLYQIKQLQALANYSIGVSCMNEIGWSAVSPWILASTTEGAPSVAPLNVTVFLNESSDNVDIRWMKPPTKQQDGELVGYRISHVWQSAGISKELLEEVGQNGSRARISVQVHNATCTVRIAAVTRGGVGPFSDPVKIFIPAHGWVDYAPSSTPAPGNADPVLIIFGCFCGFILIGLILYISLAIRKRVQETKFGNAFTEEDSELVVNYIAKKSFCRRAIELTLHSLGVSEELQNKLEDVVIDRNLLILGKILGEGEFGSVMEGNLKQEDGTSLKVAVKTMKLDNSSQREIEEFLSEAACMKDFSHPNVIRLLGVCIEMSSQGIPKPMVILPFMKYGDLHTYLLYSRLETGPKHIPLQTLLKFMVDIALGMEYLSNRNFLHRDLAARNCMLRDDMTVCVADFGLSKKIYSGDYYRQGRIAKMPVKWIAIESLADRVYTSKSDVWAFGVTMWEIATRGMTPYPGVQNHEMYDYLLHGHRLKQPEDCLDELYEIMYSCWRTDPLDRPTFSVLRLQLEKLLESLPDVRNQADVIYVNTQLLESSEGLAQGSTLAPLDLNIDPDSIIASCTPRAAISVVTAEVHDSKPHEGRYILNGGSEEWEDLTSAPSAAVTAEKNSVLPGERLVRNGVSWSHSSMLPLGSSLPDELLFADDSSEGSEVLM
# How it was run: (§1)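 Enzyme + labelled peptide + cpd premixed; ATP at per-enzyme Km starts rxn. 60 min RT, HEPES pH 7.5/MgCl2/EGTA/Brij 35/DTT buffer. Stop 12.5 mM EDTA, Eu phospho-Ab 30 min dark, TR-FRET read → IC50.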
# TYRO3 = target: T2, TYRO3 (Homo sapiens, UniProt Q06418); assay: TR-FRET kinase activity assay, TYRO3; format: biochemical; details: ATP at Km, 60 minutes
# T2 sequence (Q06418 41-890): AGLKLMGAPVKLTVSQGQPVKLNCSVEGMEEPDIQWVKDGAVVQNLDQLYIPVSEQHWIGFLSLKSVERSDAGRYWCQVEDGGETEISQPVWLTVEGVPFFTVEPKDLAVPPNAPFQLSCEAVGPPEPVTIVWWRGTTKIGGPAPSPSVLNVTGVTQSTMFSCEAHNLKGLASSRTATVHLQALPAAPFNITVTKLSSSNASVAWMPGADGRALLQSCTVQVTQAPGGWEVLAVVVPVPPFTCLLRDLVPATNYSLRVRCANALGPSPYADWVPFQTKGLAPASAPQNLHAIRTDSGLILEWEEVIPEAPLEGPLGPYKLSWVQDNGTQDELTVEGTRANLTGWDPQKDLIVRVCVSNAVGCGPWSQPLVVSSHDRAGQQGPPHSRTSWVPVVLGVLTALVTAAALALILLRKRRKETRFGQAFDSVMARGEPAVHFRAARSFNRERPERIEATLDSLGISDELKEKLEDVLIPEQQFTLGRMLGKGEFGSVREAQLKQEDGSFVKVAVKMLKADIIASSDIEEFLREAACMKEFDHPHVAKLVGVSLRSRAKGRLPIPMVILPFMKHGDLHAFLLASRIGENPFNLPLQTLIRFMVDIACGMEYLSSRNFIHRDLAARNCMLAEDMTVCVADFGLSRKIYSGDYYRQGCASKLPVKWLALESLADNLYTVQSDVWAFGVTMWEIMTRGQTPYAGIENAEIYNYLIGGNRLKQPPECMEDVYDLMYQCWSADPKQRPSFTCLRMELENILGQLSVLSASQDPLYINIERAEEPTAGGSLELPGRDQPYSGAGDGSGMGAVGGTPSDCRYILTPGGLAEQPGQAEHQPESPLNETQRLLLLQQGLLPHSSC
# How it was run: as §1
# [1] = ratio of Mer to FLT3: FLT3 IC50/Mer IC50
# [2] = ratio calculated as FLT3 IC50/Mer IC50
Compound,IC50 (MERTK) [nM],FLT3/Mer ratio (FLT3 IC50/Mer IC50) (MERTK; [1]),IC50 (TYRO3) [nM],FLT3/Mer ratio (FLT3 IC50/Mer IC50) (MERTK; [2])
COC[C@H](C)Nc1ncc2c([C@H]3CCCN(c4ccnc(C)n4)C3)cc([C@H]3CC[C@H](O)CC3)n2n1 [Compound 377],≤ 100,+++ (“+++” represents a ratio of >100),≤ 100,
OC1CCC(c2cc(-c3ccnc(N4CCOCC4)c3)c3cnc(NC4CCOC4)nn23)CC1 (stereo not drawn) [Compound 356],≤ 100,++ (“++” represents a ratio of between 10 and 100),≤ 100,
OC1CCC(c2cc(-c3ccnc(N4CCOCC4)c3)c3cnc(NCCC4CC4)nn23)CC1 (stereo not drawn) [Compound 359],≤ 100,+ (“+” represents a ratio of >2.0 and <10),≤ 100,
CC(=O)N1CCN(Cc2ccc(-c3cc(C4CCC(O)CC4)n4nc(NC(C)CC(F)(F)F)ncc34)cc2)CC1 (stereo not drawn) [Compound 370],≤ 100,+ (“+” represents a ratio of >2.0 and <10),≤ 100,
C[C@@H](CC(F)F)Nc1ncc2c(-c3cnn(C4COC4)c3)cc([C@H]3CC[C@H](O)CC3)n2n1 [Compound 351],≤ 100,++ (“++” represents a ratio of between 10 and 100),≤ 100,
COC[C@H](C)Nc1ncc2c(-c3cnn([C@@H]4CO[C@H]5OCC[C@H]54)c3)cc([C@H]3CC[C@H](O)CC3)n2n1 [Compound 422],≤ 100,,≤ 100,+++ (“+++” represents a ratio of >100)
COC[C@H](C)Nc1ncc2c(-c3cc([C@H]4CC[C@H](O)CC4)n4nc(N[C@@H](C)COC)ncc34)cc([C@H]3CC[C@H](O)CC3)n2n1 [Compound 349],≤ 100,+++ (“+++” represents a ratio of >100),≤ 100,
C[C@@H](CC(F)(F)F)Nc1ncc2c(C3=CCN(C(=O)OC(C)(C)C)CC3)cc([C@H]3CC[C@H](O)CC3)n2n1 [Compound 412],≤ 100,,≤ 100,+++ (“+++” represents a ratio of >100)
COC[C@H](C)Nc1ncc2c(-c3cnn([C@@H]4CCC(C(=O)OC(C)(C)C)C4)c3)cc([C@H]3CC[C@H](O)CC3)n2n1 (stereo partly drawn) [Compound 364],≤ 100,+++ (“+++” represents a ratio of >100),≤ 100,
CNC(=O)c1cc(-c2cc([C@H]3CC[C@H](O)CC3)n3nc(N[C@@H](C)CC(F)(F)F)ncc23)cc(C)n1 [Compound 353],≤ 100,+++ (“+++” represents a ratio of >100),≤ 100,
CC[C@H](C)Nc1ncc2c(-c3cncc(S(C)(=O)=O)c3)cc([C@H]3CC[C@H](O)CC3)n2n1 [Compound 119],≤ 100,+++ (“+++” represents a ratio of >100),≤ 100,
CC(=O)N1CCN(Cc2ccc(-c3cc([C@H]4CC[C@H](O)CC4)n4nc(N[C@@H](C)COC(F)F)ncc34)cc2)CC1 [Compound 413],≤ 100,,≤ 100,++ (“++” represents a ratio of between 10 and 100)
COC[C@H](C)Nc1ncc2c([C@@H]3CCN(S(C)(=O)=O)C3)cc([C@H]3CC[C@H](O)CC3)n2n1 [Compound 375],≤ 100,+++ (“+++” represents a ratio of >100),≤ 100,

# Other lines, results leading:
IC50 (MERTK) [nM],FLT3/Mer ratio (FLT3 IC50/Mer IC50) (MERTK; [1]),IC50 (TYRO3) [nM],FLT3/Mer ratio (FLT3 IC50/Mer IC50) (MERTK; [2]),Compound
≤ 100,+++ (“+++” represents a ratio of >100),≤ 100,,COC[C@H](C)Nc1ncc2c(-c3ccnc(OC4COC4)c3)cc([C@H]3CC[C@H](O)CC3)n2n1 [Compound 358]
≤ 100,+++ (“+++” represents a ratio of >100),≤ 100,,COC[C@H](C)Nc1ncc2c(-c3ccnc(O[C@H]4CCNC4)c3)cc([C@H]3CC[C@H](O)CC3)n2n1 [Compound 386]
≤ 100,,≤ 100,+++ (“+++” represents a ratio of >100),COC[C@H](C)Nc1ncc2c(-c3cnn(CS(C)(=O)=O)c3)cc([C@H]3CC[C@H](O)CC3)n2n1 [Compound 419]
≤ 100,+++ (“+++” represents a ratio of >100),≤ 100,,CNc1cc(-c2cc([C@H]3CC[C@H](O)CC3)n3nc(N[C@@H](C)COC)ncc23)ccn1 [Compound 354]
≤ 100,+++ (“+++” represents a ratio of >100),≤ 100,,COCC(C)Nc1ncc2c(-c3cnn(CC4CCCO4)c3)cc(C3CCC(O)CC3)n2n1 (stereo not drawn) [Compound 379]
≤ 100,+++ (“+++” represents a ratio of >100),100 to 1000,,COCC(C)Nc1ncc2c(C3CCCN(C(C)=O)C3)cc(C3CCC(O)CC3)n2n1 (stereo not drawn) [Compound 371]
≤ 100,,≤ 100,+++ (“+++” represents a ratio of >100),COC[C@H](C)Nc1ncc2c(-c3cnn(C4(C(=O)N5CCCC5)CC4)c3)cc([C@H]3CC[C@H](O)CC3)n2n1 [Compound 408]
≤ 100,,≤ 100,+++ (“+++” represents a ratio of >100),C[C@@H](COC(F)F)Nc1ncc2c(-c3ccnc(N4CCOCC4)c3)cc([C@H]3CC[C@H](O)CC3)n2n1 [Compound 405]
≤ 100,+++ (“+++” represents a ratio of >100),≤ 100,,COCC(C)Nc1ncc2c(-c3cnn(C(C)(C)C(=O)N4CCOC(C)(C)C4)c3)cc(C3CCC(O)CC3)n2n1 (stereo not drawn) [Compound 366]
≤ 100,+++ (“+++” represents a ratio of >100),≤ 100,,CC[C@H](C)Nc1ncc2c(-c3cncc(S(C)(=O)=O)c3)cc([C@H]3CC[C@@H](O)CC3)n2n1 [Compound 120]
≤ 100,+++ (“+++” represents a ratio of >100),≤ 100,,COC[C@H](C)Nc1ncc2c(-c3ccnc(OC4CCNCC4)c3)cc([C@H]3CC[C@H](O)CC3)n2n1 [Compound 369]
